We go through 1 molecule from patent EP0073758B1, “TREATMENT OF INFLAMMATORY VIRAL INFECTIONS, ACNE, DERMATITIS AND ARTHRITIS CONDITIONS” (priority 1981, dated 1982).

Series [1] can be described thus: topical application in acne. To be noted: 500 milligrams in 57 g of carrier. The series is classed as in vivo. From the text: In preparing topical applications for the treatment of external conditions, such as dermatitis and acne as well as arthritis, rheumatism, and related conditions, it is within the scope of the invention to formulate phenolphthalein with suitable carriers and bases to aid in the application to, or absorption into, the target or affected area. One group of carriers is the oil-based carriers for external application this group includes dimethyl sulfoxide (DMSO), petrolatum, mineral oil, and anhydrous lanolin. In most topical applications the concentration of the phenolphthalein in the carrier may vary widely. […] It is believed that a concentration of at least about 250 milligrams per 28 g of carrier will be effective.

For series [2] the following is noted: ingested into the human body; rest excreted in the feces; cited from earlier work.
For series [3] the following is noted: stated as well known; cited from earlier work.
Series [4] has as its system Herpes Simplex infections. The series can be described thus: oral dosages administered to victims of Herpes Simplex infections. The series is classed as in vivo.
The nature of series [5]: oral dosages against canker sores. The series is classed as in vivo.
Another series can be described thus: solubility in DMSO. Type of series: physicochemical. The settings on record: per one milliliter DMSO; maximum solubility not determined. The procedure: Topical applications were prepared for the treatment of the external conditions, deseases and symptoms of arthritis, rheumatism, and rheumatoid arthritis or similar conditions. Phenolphthalein was formulated with a topical carrier of dimethyl sulfoxide (DMSO) to aid in the application of phenolphthalein to, and its absorption into, the affected area for the relief of pain and the treatment of the area. It has been discovered that DMSO is an especially effective solvent for phenolphthalein. As little as one milliliter of liquid DMSO will dissolve two-hundred milligrams of phenolphthalein, or powders containing phenolphthalein. This factor coupled with the known ability of DMSO to penetrate organic tissue are believed to allow smaller dosages of phenolphthalein to be used in both oral and topical applications as well as in preparation of injectable solutions. For example the DMSO/phenol- phthalein solution can be formulated into topical carriers which should enhance the penetration of phenolphthalein into the skin, or ingested.

The subject of another series is Herpes Labialis. The series is classed as in vivo, patients. The procedure: In an informal clinical study 41 patients with symptoms of Herpes Labialis were treated with oral dosages of phenolphthalein. The patients were treated at different times over a period of about two months. The initial dosage was one hundred milligrams administered every 8 hours for the first day and every 12 hours thereafter. […] Of the 41 patients treated, 39 made complete recovery within two days without any noticeable development of the cold sore. The other two patients made complete recovery with no swelling or visible evidence of the cold sore remaining after three days. A control group of 24 patients with Herpes Labialis history were selected at random from clinical files as a control group. Of the 24 patients, 5 were excluded because of the total absence of early indications of infection. The other 19 patients were treated conventionally over a 10 day period. Only 4 experienced even partial relief from developing cold sores and 15 developed active cold sores and blisters which lasted up to 4 weeks.
The results of this informal study indicate that phenolphthalein is a very effective drug for preventing and arresting the development of cold sores and blisters at the time of initial appearance in patients.

On to `O=C1OC(c2ccc(O)cc2)(c2ccc(O)cc2)c2ccccc21` [phenolphthalein, 3,3 - Bis(p - hydroxyphenyl) - phthalide], for which, in series [1], the effect against acne result is on record as “effective against acne”. In series [2], the “active drug in solution absorbed into the blood stream” value is recorded as “less than 15%”. Moreover, the solubility in water entry in series [3] is recorded as “highly insoluble in water”. For the same molecule, the “treatment of Herpes Simplex infections, including cold sores, fever blisters and Herpes Genitalis” value in series [4] is listed as “successfully administered”. In addition, the “relief and cure of canker sores” value in series [5] is “effective to relieve and cure canker sores within a matter of hours”. Besides, the “amount dissolved by one milliliter of liquid DMSO” value in “solubility in DMSO” is “two-hundred”. In addition, the laxative effect entry in the series on Herpes Labialis (human, in vivo, po) is recorded as “complaints related to the laxative effect”. The “patients who made complete recovery within two days without any noticeable development of the cold sore” value with Herpes Labialis (of the 41 patients treated, oral, initially one hundred milligrams, later 30 milligrams, every 8 hours first day, every 12 hours thereafter) came out at 39. Further, the “patients who made complete recovery with no swelling or visible evidence of the cold sore remaining after three days” value in the series with Herpes Labialis (of the 41 patients treated, same oral regimen) was “two”. Moreover, the “follow-up observations: development of Herpes Labialis” value with Herpes Labialis (the 41 patients treated) is recorded as “no development of Herpes Labialis”.
